Literature values, collected in US6641839B1, “Pharmaceutical formulations for preventing drug tolerance” (Athpharma Limited, priority 1987, dated 2003).

Conditions: nitrate therapy, widely believed critical level

| SMILES | minimum critical plasma concentration for therapeutic effect |
| --- | --- |
| O=[N+]([O-])O[C@@H]1CO[C@H]2[C@@H]1OC[C@@H]2O [IS-5-MN, isosorbide-5-mononitrate] | approximately 100 ng/ml |
| O=[N+]([O-])O[C@H]1CO[C@H]2[C@@H]1OC[C@H]2O [IS-2-MN, isosorbide-2-mononitrate] | approximately 20 ng/ml |
